Test results published in patent publication US11370776B2, “Sulfonylureas and sulfonylthioureas as NLRP3 inhibitors” (Inflazome Limited, priority 2017, dated 2022).
Where a name gives a salt, the structure may show the parent alone.

How the values were obtained:
[1] = molecular target: T1, NLRP3 (Homo sapiens, UniProt Q96P20); assay: THP-1 cells pyroptosis assay; assay type: cell-based; parameters: Seed THP-1 cells (25,000 cells/well) containing 1.0 μg/ml LPS; host or cells: THP-1 cells, LPS-primed, nigericin-stimulated
T1 sequence (Q96P20 whole entry): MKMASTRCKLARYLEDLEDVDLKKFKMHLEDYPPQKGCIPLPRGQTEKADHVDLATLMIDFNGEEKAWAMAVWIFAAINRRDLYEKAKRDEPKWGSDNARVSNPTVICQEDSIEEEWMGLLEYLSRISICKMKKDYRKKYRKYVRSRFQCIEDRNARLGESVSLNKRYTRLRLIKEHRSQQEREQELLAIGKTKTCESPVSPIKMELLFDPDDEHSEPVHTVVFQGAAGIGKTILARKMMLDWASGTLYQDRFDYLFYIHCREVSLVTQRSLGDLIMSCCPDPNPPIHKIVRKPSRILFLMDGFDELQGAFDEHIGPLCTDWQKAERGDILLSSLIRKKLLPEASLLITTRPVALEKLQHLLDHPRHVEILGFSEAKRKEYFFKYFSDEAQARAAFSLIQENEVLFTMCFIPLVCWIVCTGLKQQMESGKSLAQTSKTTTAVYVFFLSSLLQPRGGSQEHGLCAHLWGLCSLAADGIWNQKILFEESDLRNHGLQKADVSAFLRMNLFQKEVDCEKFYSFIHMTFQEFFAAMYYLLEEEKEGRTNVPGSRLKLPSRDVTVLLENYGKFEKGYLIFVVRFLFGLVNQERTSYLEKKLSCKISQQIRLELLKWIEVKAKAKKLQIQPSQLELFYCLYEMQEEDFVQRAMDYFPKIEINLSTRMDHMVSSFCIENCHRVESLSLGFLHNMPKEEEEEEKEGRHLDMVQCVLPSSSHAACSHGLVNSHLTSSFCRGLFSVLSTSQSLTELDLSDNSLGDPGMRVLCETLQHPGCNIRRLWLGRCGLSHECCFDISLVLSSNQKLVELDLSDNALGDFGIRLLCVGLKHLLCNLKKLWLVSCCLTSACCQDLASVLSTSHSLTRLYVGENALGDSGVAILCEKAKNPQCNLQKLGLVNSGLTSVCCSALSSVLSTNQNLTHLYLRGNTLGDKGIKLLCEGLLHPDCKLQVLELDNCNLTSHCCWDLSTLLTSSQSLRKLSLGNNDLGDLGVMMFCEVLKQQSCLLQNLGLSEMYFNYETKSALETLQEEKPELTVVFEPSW
Protocol: The cells were routinely passaged and grown to confluency (˜10^6 cells/ml). On the day of the experiment, THP-1 cells were harvested and resuspended into RPMI medium (without FBS). The cells were then counted and viability (>90%) checked by Trypan blue (Sigma # T8154). […] To this diluted cell solution was added LPS (Sigma # L4524) to give a 1 μg/ml Final Assay Concentration (FAC). 40 μl of the final preparation was aliquoted into each well of a 96-well plate. The plate thus prepared was used for compound screening. THP-1 Cells Pyroptosis Assay The following method step-by-step assay was followed for compound screening. • 1. […] Add 5 μl nigericin (Sigma # N7143) (FAC 5 μM) to all wells • 5. […] At the end of the incubation period, spin plates at 300×g for 3 mins and remove supernatant • 7. Then add 50 μl of resazurin (Sigma # R7017) (FAC 100 μM resazurin in RPMI medium without FBS) and incubate plates for a further 1-2 hrs at 37° C. and 5% CO2 • 8. […] IC50 data is fitted to a non-linear regression equation (log inhibitor vs response-variable slope 4-parameters) [table]

[2] = molecular target: T1, NLRP3; assay: Human whole blood IL1β release assay; assay type: cell-based; parameters: Human whole blood in Li-heparin tubes was obtained from healthy donors; from tissue; host or cells: human whole blood from healthy donors, LPS-primed, nigericin-stimulated
Protocol: Human Whole Blood IL1β Release Assay
For systemic delivery, the ability to inhibit NLRP3 when the compounds are present within the bloodstream is of great importance. For this reason, the NLRP3 inhibitory activity of a number of compounds in human whole blood was investigated in accordance with the following protocol.
Human whole blood in Li-heparin tubes was obtained from healthy donors from a volunteer donor panel. • 1. […] Incubate for 3 hrs at 37° C., 5% CO2 • 4. Add 10 μl Nigericin (Sigma # N7143) (10 μM FAC) to all wells • 5. Incubate for 1 hr at 37° C., 5% CO2 • 6. At the end of the incubation period, spin plates at 300×g for 5 mins to pellet cells and remove 20 μl of supernatant and add to 96-well v-bottom plates for IL-1β analysis (note: these plates containing the supernatants can be stored at −80° C. to be analysed at a later date) • 7. IL-1β was measured according to the manufacturer protocol (Perkin Elmer-AlphaLisa IL-1 Kit AL220E-5000) • 8. IC50 data is fitted to a non-linear regression equation (log inhibitor vs response-variable slope 4-parameters)

[3] = THP-1 cells, 1.0 μg/ml LPS, nigericin 5 μM, pyroptosis read with resazurin, read-out: THP IC50
[4] = human whole blood, 1 μg/ml LPS, nigericin 10 μM, IL-1β release, read-out: HWB IC50

Compound	IC50 [1, 3] [nM]	further results
COc1nccnc1S(=O)(=O)NC(=O)Nc1c2c(cc3c1CCC3)CCC2 [Example 8, N-((1,2,3,5,6,7-Hexahydro-s-indacen-4-yl)carbamoyl)-3-methoxypyrazine-2-sulfonamide, Potassium Salt]	< 800	IC50 [2, 4]: < 5000 nM
Cc1ccnc(S(=O)(=O)NC(=O)Nc2c3c(cc4c2CCC4)CCC3)n1 [Example 17, N-((1,2,3,5,6,7-Hexahydro-s-indacen-4-yl)carbamoyl)-4-methyl pyrimidine-2-sulfonamide, Potassium Salt]	< 1200	IC50 [2, 4]: < 5000 nM
Cc1cc(C)nc(S(=O)(=O)NC(=O)Nc2c(-c3ccnc(C#N)c3)cc(F)cc2C(C)C)n1 [Example 46, N-((2-(2-Cyanopyridin-4-yl)-4-fluoro-6-isopropylphenyl)carbamoyl)-4,6-dimethylpyrimidine-2-sulfonamide]	< 800	NLRP3 inhibitory activity (in words) ([1]; THP-1 pyroptosis assay): highly active; IC50 [2, 4]: < 2500 nM
COc1cc(-c2ccc3c(c2NC(=O)NS(=O)(=O)c2ccnc(CN(C)C)c2)CCC3)ccn1 [Example 59, 2-((Dimethylamino)methyl)-N-((5-(2-methoxypyridin-4-yl)-2,3-dihydro-1H-inden-4-yl)carbamoyl)pyridine-4-sulfonamide, sodium salt]	< 800	IC50 [2, 4]: < 2500 nM
COc1cc(-c2cc(F)cc(C(C)C)c2NC(=O)NS(=O)(=O)c2cc(N(C)C)cnn2)ccn1 [Example 51, 5-(Dimethylamino)-N-((4-fluoro-2-isopropyl-6-(2-methoxypyridin-4-yl)phenyl)carbamoyl) pyridazine-3-sulfonamide]		IC50 ([1]; THP IC50, THP-1 cells, 1.0 μg/ml LPS, nigericin 5 μM, pyroptosis read with resazurin): < 800 nM; IC50 [2]: < 2500 nM
CN(C)c1ccc(S(=O)(=O)NC(=O)Nc2c3c(cc4c2CCC4)CCC3)nn1 [Example 13, 6-(Dimethylamino)-N-((1,2,3,5,6,7-hexahydro-s-indacen-4-yl)carbamoyl)pyridazine-3-sulfonamide, potassium salt]	< 1600	
Cc1ccc(S(=O)(=O)NC(=O)Nc2c(C(C)C)cccc2C(C)C)nn1 [Example 5, N-((2,6-Diisopropylphenyl)carbamoyl)-6-methylpyridazine-3-sulfonamide, Potassium Salt]	< 10000	
O=C(Nc1c2c(cc3c1CCC3)CCC2)NS(=O)(=O)c1ccc(=O)[nH]c1 [Example 23, N-((1,2,3,5,6,7-hexahydro-s-indacen-4-yl)carbamoyl)-6-oxo-1,6-dihydropyridine-3-sulfonamide, Potassium Salt]	< 10000	
O=C(Nc1c(-c2ccncc2)cc(F)c2c1CCC2)NS(=O)(=O)c1nccnc1C(F)F [Example 45, 3-(Difluoromethyl)-N-((7-fluoro-5-(pyridin-4-yl)-2,3-dihydro-1H-inden-4-yl)carbamoyl)pyrazine-2-sulfonamide]	< 10000	
COc1ncccc1S(=O)(=O)NC(=O)Nc1c2c(cc3c1CCC3)CCC2 [Example 15, N-((1,2,3,5,6,7-Hexahydro-s-indacen-4-yl)carbamoyl)-2-methoxypyridine-3-sulfonamide, Potassium Salt]	< 1200	
COc1cc(-c2cc(F)cc(C(C)C)c2NC(=O)NS(=O)(=O)c2cnc(N(C)C)cn2)ccn1 [Example 39, 5-(Dimethylamino)-N-((4-fluoro-2-isopropyl-6-(2-methoxypyridin-4-yl)phenyl)carbamoyl)pyrazine-2-sulfonamide]	< 800	
O=C(Nc1c2c(cc3c1CCC3)CCC2)NS(=O)(=O)c1cnc2ccccc2n1 [Example 30, N-((1,2,3,5,6,7-Hexahydro-s-indacen-4-yl)carbamoyl)quinoxaline-2-sulfonamide, Potassium Salt]	< 10000	
O=C(Nc1c2c(cc3c1CCC3)CCC2)NS(=O)(=O)c1ncccn1 [Example 3, N-((1,2,3,5,6,7-Hexahydro-s-indacen-4-yl)carbamoyl) pyrimidine-2-sulfonamide, Potassium Salt]	< 1600	IC50 ([1]; THP-1 pyroptosis assay, bound stated, read-out: IC50 value): > 1200 nM
COc1cc(-c2ccc3c(c2NC(=O)NS(=O)(=O)c2nccnc2C(F)F)CCC3)ccn1 [Example 44, 3-(Difluoromethyl)-N-((5-(2-methoxypyridin-4-yl)-2,3-dihydro-1H-inden-4-yl)carbamoyl)pyrazine-2-sulfonamide]	< 1200	
Cc1cc(N(C)C)nc(S(=O)(=O)NC(=O)Nc2c3c(cc4c2CCC4)CCC3)n1 [Example 56, 4-(Dimethylamino)-N-((1,2,3,5,6,7-hexahydro-s-indacen-4-yl)carbamoyl)-6-methylpyrimidine-2-sulfonamide, potassium salt]	< 800	NLRP3 inhibitory activity (in words) ([1]; THP-1 pyroptosis assay): highly active
CN(C)CCNc1cnc(S(=O)(=O)NC(=O)Nc2c3c(cc4c2CCC4)CCC3)cn1 [Example 25, 5-((2-(Dimethylamino)ethyl)amino)-N-((1,2,3,5,6,7-hexahydro-s-indacen-4-yl)carbamoyl)pyrazine-2-sulfonamide, potassium Salt]	< 800	
O=C(Nc1c2c(cc3c1CCC3)CCC2)NS(=O)(=O)c1cccnn1 [Example 2, N-((1,2,3,5,6,7-Hexahydro-s-indacen-4-yl)carbamoyl)pyridazine-3-sulfonamide, Potassium Salt]	< 2000	
CN(C)c1cnc(S(=O)(=O)NC(=O)Nc2c3c(cc4c2CCC4)CCC3)cn1 [Example 26, 5-(Dimethylamino)-N-((1,2,3,5,6,7-hexahydro-s-indacen-4-yl)carbamoyl)pyrazine-2-sulfonamide, Potassium Salt]	< 800	
O=C(Nc1c2c(cc3c1CCC3)CCC2)NS(=O)(=O)c1nccnc1C(F)F [Example 14, 3-(Difluoromethyl)-N-((1,2,3,5,6,7-hexahydro-s-indacen-4-yl)carbamoyl)pyrazine-2-sulfonamide, potassium salt]	< 2000	
N#Cc1nccnc1S(=O)(=O)NC(=O)Nc1c2c(cc3c1CCC3)CCC2 [Example 24, 3-Cyano-N-((1,2,3,5,6,7-hexahydro-s-indacen-4-yl)carbamoyl)pyrazine-2-sulfonamide, Potassium Salt]	< 10000	
COc1ccc(S(=O)(=O)NC(=O)Nc2c3c(cc4c2CCC4)CCC3)nn1 [Example 22, N-((1,2,3,5,6,7-Hexahydro-s-indacen-4-yl)carbamoyl)-6-methoxy pyridazine-3-sulfonamide, Potassium Salt]	< 1600	
COc1cc(-c2cc(F)cc(C(C)C)c2NC(=O)NS(=O)(=O)c2cncc(N(C)C)n2)ccn1 [Example 35, 6-(Dimethylamino)-N-((4-fluoro-2-isopropyl-6-(2-methoxypyridin-4-yl)phenyl)carbamoyl)pyrazine-2-sulfonamide]	< 800	
CC(C)c1cccc(C(C)C)c1NC(=O)NS(=O)(=O)c1cnccn1 [Example 6, N-((2,6-Diisopropylphenyl)carbamoyl)pyrazine-2-sulfonamide, Sodium Salt]	< 10000	
O=C(Nc1c2c(cc3c1CCC3)CCC2)NS(=O)(=O)c1cncc(N2CCOCC2)n1 [Example 28, N-((1,2,3,5,6,7-Hexahydro-s-indacen-4-yl)carbamoyl)-6-morpholinopyrazine-2-sulfonamide, Potassium Salt]	< 800	
COc1cc(-c2cc(F)cc(C(C)C)c2NC(=O)NS(=O)(=O)c2nc(C)cc(C)n2)ccn1 [Example 47, N-((4-Fluoro-2-isopropyl-6-(2-methoxypyridin-4-yl)phenyl)carbamoyl)-4,6-dimethylpyrimidine-2-sulfonamide]	< 800	NLRP3 inhibitory activity (in words) ([1]; THP-1 pyroptosis assay): highly active
CN(C)c1cnnc(S(=O)(=O)NC(=O)Nc2c3c(cc4c2CCC4)CCC3)c1 [Example 21, 5-(Dimethylamino)-N-((1,2,3,5,6,7-hexahydro-s-indacen-4-yl)carbamoyl)pyridazine-3-sulfonamide, Potassium Salt]	< 800	
CC(C)c1cc(F)cc(-c2ccnc(C#N)c2)c1NC(=O)NS(=O)(=O)c1cncc(N(C)C)n1 [Example 34, N-((2-(2-Cyanopyridin-4-yl)-4-fluoro-6-isopropylphenyl)carbamoyl)-6-(dimethylamino)pyrazine-2-sulfonamide]	< 800	
